Experimental data from ChEMBL document CHEMBL4138063, “Discovery of Decamidine as a New and Potent PRMT1 Inhibitor” (Medchemcomm, 2017).
The source made the active and inactive calls. The rule behind the calls is not given here.

Experiments:
[1] = molecular target: T1, Protein arginine N-methyltransferase 5 (Homo sapiens, UniProt O14744); experiment: Inhibition of PRMT5 (unknown origin) assessed as reduction in methyl transfer from [3H]-SAM to biotinylated histone H4 peptide H4-20-Biotin at 10 uM pre-incubated for 3 mins before [3H]-SAM addition and measured after 45 mins by scintillation proximity assay
T1 sequence (O14744 whole entry): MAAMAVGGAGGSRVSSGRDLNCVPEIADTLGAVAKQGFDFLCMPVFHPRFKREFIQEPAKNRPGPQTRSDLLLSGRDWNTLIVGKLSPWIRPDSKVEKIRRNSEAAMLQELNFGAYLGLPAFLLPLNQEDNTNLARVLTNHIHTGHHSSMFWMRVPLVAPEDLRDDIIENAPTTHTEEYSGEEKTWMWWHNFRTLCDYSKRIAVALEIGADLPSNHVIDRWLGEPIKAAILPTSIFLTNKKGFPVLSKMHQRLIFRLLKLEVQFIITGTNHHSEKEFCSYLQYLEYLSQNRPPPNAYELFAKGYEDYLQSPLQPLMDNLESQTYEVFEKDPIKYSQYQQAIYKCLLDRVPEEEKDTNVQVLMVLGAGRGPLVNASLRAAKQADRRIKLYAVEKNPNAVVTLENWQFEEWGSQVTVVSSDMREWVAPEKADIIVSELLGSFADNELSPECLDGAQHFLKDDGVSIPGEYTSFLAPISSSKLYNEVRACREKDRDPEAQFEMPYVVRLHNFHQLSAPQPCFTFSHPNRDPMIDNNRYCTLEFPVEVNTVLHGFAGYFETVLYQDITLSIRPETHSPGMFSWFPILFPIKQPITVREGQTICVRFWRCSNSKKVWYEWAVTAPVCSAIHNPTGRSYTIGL

[2] = molecular target: T1, Protein arginine N-methyltransferase 5; experiment: Inhibition of PRMT5 (unknown origin) assessed as reduction in methyl transfer from [3H]-SAM to biotinylated histone H4 peptide H4-20-Biotin at 100 uM pre-incubated for 3 mins before [3H]-SAM addition and measured after 45 mins by scintillation proximity assay
[3] = molecular target: T1, Protein arginine N-methyltransferase 5; experiment: Inhibition of PRMT5 (unknown origin) assessed as reduction in methyl transfer from [3H]-SAM to biotinylated histone H4 peptide H4-20-Biotin pre-incubated for 3 mins before [3H]-SAM addition and measured after 45 mins by scintillation proximity assay
[4] = molecular target: Protein arginine N-methyltransferase 1 (Homo sapiens, UniProt Q99873); experiment: Inhibition of PRMT1 (unknown origin) assessed as reduction in methyl transfer from [3H]-SAM to biotinylated histone H4 peptide H4-20-Biotin at 10 uM pre-incubated for 3 mins before [3H]-SAM addition and measured after 15 mins by scintillation proximity assay
Protein arginine N-methyltransferase 1, sequence (Q99873 whole entry): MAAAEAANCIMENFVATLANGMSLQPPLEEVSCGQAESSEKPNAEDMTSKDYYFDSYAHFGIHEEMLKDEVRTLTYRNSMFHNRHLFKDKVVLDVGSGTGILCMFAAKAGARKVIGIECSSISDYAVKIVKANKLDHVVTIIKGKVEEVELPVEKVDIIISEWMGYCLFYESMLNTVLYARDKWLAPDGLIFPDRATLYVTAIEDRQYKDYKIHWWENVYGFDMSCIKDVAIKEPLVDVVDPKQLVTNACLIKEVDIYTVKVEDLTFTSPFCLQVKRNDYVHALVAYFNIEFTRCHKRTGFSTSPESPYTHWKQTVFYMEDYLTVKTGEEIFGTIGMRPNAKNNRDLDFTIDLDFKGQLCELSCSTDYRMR

Compound | inhibition [1] | inhibition [2] | IC50 [3] [µM] | IC50 [4] [µM]
N=C(N)c1ccc(OCCCCCCOc2ccc(C(=N)N)cc2)cc1 [HEXAMIDINE] | inactive | inactive | 357 | 
N=C(N)c1ccc(OCOc2ccc(C(=N)N)cc2)cc1 |  | 50% |  | 
CC(CCCOc1ccc(C(=N)N)cc1)Oc1ccc(C(=N)N)cc1 (configuration not stated) | inactive | inactive |  | 
N=C(N)c1ccc(OCCOc2ccc(C(=N)N)cc2)cc1 | inactive | inactive |  | 
N=C(N)c1ccc(OCCCOc2ccc(C(=N)N)cc2)cc1 | inactive | inactive |  | 
N=C(N)c1ccc(Oc2ccc(C(=N)N)cc2)cc1 | inactive | inactive |  | 
N=C(N)c1ccc(OCCCCCCCCCCOc2ccc(C(=N)N)cc2)cc1 |  | 50% | 43 | 
N=C(N)c1ccc(OCCCCOc2ccc(C(=N)N)cc2)cc1 | inactive | inactive |  | 
N=C(N)c1ccc(OC/C=C/COc2ccc(C(=N)N)cc2)cc1 | inactive | inactive |  | 
N=C(N)c1ccc(-c2ccc(-c3ccc(C(=N)N)cc3)o2)cc1 [FURAMIDINE] |  | 50% | 256 | 22
N=C(N)c1ccc(/C=C/c2ccc(C(=N)N)cc2)cc1 [STILBAMIDINE] |  |  | 712 | 
